Results from PubChem BioAssay (NCI).
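The compound was tested at five concentrations on cells cultured in 96-well plates, with a 48-hour exposure period. TGI: total growth inhibition.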

Columns and labels:
Assay in all cases: inhibition of tumour cell growth, NCI panel, 48 h
[1] = system: U251 CNS
[2] = system: SK-MEL-2 melanoma
[3] = system: NCI-H522 lung
[4] = system: UACC-62 melanoma
[5] = system: RXF-631 renal
[6] = system: TK-10 renal
[7] = system: A498 renal
[8] = system: HCT-15 colon
[9] = system: DMS 273 small cell lung
[10] = system: SW-620 colon
[11] = system: ACHN renal
[12] = system: KM20L2 colon
[13] = system: DMS 114 small cell lung
[14] = system: SK-MEL-5 melanoma
[15] = system: SK-MEL-28 melanoma
[16] = system: HOP-62 NSCLC
[17] = system: HL-60(TB) leukemia
[18] = system: HOP-92 NSCLC
[19] = system: SR leukemia
[20] = system: SF-295 CNS
[21] = system: UO-31 renal
[22] = system: RXF 393 renal
[23] = system: SN12C renal
[24] = system: OVCAR-8 ovarian
[25] = system: RPMI-8226 leukemia
[26] = system: MOLT-4 leukemia
[27] = system: LXFL 529 NSCLC
[28] = system: K-562 leukemia
[29] = system: SNB-75 CNS
[30] = system: HCT-116 colon
[31] = system: HT29 colon
[32] = system: IGROV1 ovarian
[33] = system: CCRF-CEM leukemia
[34] = system: OVCAR-4 ovarian
[35] = system: M14 melanoma
[36] = system: CAKI-1 renal
[37] = system: MALME-3M melanoma
[38] = system: SNB-78 CNS
[39] = system: A549 NSCLC
[40] = system: UACC-257 melanoma
[41] = system: KM12 colon
[42] = system: OVCAR-5 ovarian
[43] = system: HOP-18 NSCLC
[44] = system: NCI-H460 lung
[45] = system: DLD-1 colon
[46] = system: EKVX NSCLC
[47] = system: 786-0 renal
[48] = system: NCI-H226 lung
[49] = system: NCI-H23 lung
[50] = system: LOX IMVI melanoma
[51] = system: M19-MEL melanoma
[52] = system: SNB-19 CNS
[53] = system: SK-OV-3 ovarian
[54] = system: SF-539 CNS
[55] = system: SF-268 CNS
[56] = system: HCC-2998 colon

Measured: TGI

C1CCN(c2nsc(N3CCCCC3)n2)CC1
> 100 µM: all assays above
